Values of other authors in paper PMC8319603, “Developing C2-Aroyl Indoles as Novel Inhibitors of IDO1 and Understanding Their Mechanism of Inhibition via Mass Spectroscopy, QM/MM Calculations and Molecular Dynamics Simulation” (Frontiers in Chemistry, 2021).
Read-outs that look alike come from different tables or passages of the source.

What was measured:
hIDO1 = settings: 2017, cited from earlier work
HeLa = settings: Figure 1; ref Prendergast et al., 2017; cited from earlier work
SKOV3 = system: SKOV3; design: method as in Siu et al., 2017; Wen et al., 2019; settings: Figure 1; ref Siu et al., 2017; Wen et al., 2019; cited from earlier work

Question: With `NS(=O)(=O)NCCNc1nonc1C(=NO)Nc1ccc(F)c(Br)c1` [1b] as the compound, how does the IC50 (hIDO1; ref Prendergast et al., read-out: IC50 against IDO1) read?
Answer: […]

Question: And the IC50 (HeLa)?
Answer: 0.0015 µM

Question: Which IC50 (hIDO1; Figure 1, ref Siu et al., Wen et al., 2019, read-out: IC50 (IDO1)) does the source give for `O=C1CC(c2c[nH]c3ccc(F)cc23)C(=O)N1` (centres unmarked) [1d] here?
Answer: […]

Question: And the IC50 (SKOV3)?
Answer: 0.07 µM

Question: Which IC50 (SKOV3) does the source give for `C[C@@H](C(=O)Nc1ccc(Cl)cc1)C1CCC(c2ccnc3ccc(F)cc23)CC1` (some centres unmarked) [1e] here?
Answer: 0.0034 µM
